Test results taken from article PMC5760734, “Development of an oral once-weekly drug delivery system for HIV antiretroviral therapy” (Nature Communications, 2018).
pIC50: −log10 of the molar value. Like-named read-outs stand apart in the source and are kept apart here.

Assays:
[1] = tested on: HIV reference strain NL4-3; parameters: method as in ref 46,55–57 (a number printed in a supplementary file, which may have a reference list of its own: not looked up in the article's list); settings: wild-type virus; cited from earlier work
[2] = humans receiving the usual oral dose; stated by Reviewer 1, no reference; cited from earlier work
[3] = parameters: method as in ref 58 (a number printed in a supplementary file, which may have a reference list of its own: not looked up in the article's list); settings: cited from earlier work
[4] = Drug stability in simulated gastric fluid (SGF), HPLC; settings: SGF pH ~1.2, 37 °C, 24 h, salt forms
Experimental: To determine drug stability at low pH, the drugs were dissolved in methanol to form a concentrated stock solution. Methanol solutions were then diluted 20-fold in simulated gastric fluid, USP without pepsin (pH ~1.2; henceforth referred to as SGF). Drug solutions were then placed in a shaker incubator (New Brunswick™ Innova® 44, Eppendorf, USA) at 37 °C and 150 r.p.m. At various times, aliquots were withdrawn and stored at −20 °C until analysis. Drug concentrations in the solution were analysed using HPLC and reported as percent of the initial concentrations.
The output signal was monitored and processed using ChemStation® software (Agilent Technologies Inc., USA). Chromatographic separation was carried out on a 50 mm × 4.6 mm EC-C18 Agilent Poroshell 120 analytical column with 2.7 µm spherical particles.
The injection volume was 5 µL, and the UV detection wavelength of 260 nm was selected.
For RPV, the stationary phase was maintained at 40 °C. The mobile phase consisted of methanol: water (pH 3.5 adjusted with 0.1% formic acid) (43:57 v/v) at a flow rate of 0.9 mL/min over a 10 min run time. The injection volume was 20 µL, and the UV detector was set at 290 nm.
For CAB, the column was maintained at 45 °C and the optimized mobile phase consisted of acetonitrile: water (pH 3.5 adjusted with 0.1% formic acid) (30:70 v/v) at flow rate of 0.8 mL/min over an 8 min run time. For analysis, 5 µL of the sample was injected on to the column, and the samples were analysed at a wavelength of 260 nm.
For tenofovir alafenamide, the column was maintained at 22 °C. The mobile phase consisted initially of acetonitrile: water (pH 3.5 adjusted with 0.1% formic acid) (100:0 v/v). […] The flow rate was 0.6 mL/min and the run time was 8 min. The injection volume was 10 µL, and the UV detection wavelength of 260 nm was selected.

[5] = tested on: drug-resistant HIV strains; settings: cited from earlier work
[6] = Drug stability at high temperature (150 °C, 2 h), HPLC; assay type: physicochemical; settings: 150 °C for 2 h
Experimental: To determine the drug stability at high temperatures, the drug was weighed in a 20 mL glass vial, and placed in a convection oven at 150 °C for 2 h. Drug was dissolved in methanol, and the concentration was compared to that of an unheated standard of the same initial concentration via HPLC.

[7] = Drug release from polymer matrices in SGF; assay type: physicochemical; settings: for drug released: n = 3
Experimental: Drug loaded polymer matrices were synthesized by melt mixing. Appropriate amounts of drug and polymer were weighed and mixed in a 20 mL glass vial. The vial was then placed in a convection oven at 130 °C to melt the polymer. The mixture was then transferred to a negative mould heated to the same temperature. Once the mould was filled with the melted mixture, it was removed from the oven and cooled at room temperature.
Drug release studies were performed in SGF supplemented with 5%w/w Tween® 20. The drug–polymer matrices were placed in 50 mL release media at 37 °C in an incubator shaker at 150 r.p.m. At various times, about 1 mL of the media was collected and stored at −20 °C until further analysis. The rest of the media was discarded and the drug–polymer matrix was placed in fresh media. Drug concentrations in the aliquots were measured using HPLC as described previously.

[8] = tested on: HIV; parameters: method as in ref 2–6 (a number printed in a supplementary file, which may have a reference list of its own: not looked up in the article's list); settings: monotherapy or dual therapy with rilpivirine, after a two-year follow up; cited from earlier work

For `C[C@@H]1CCO[C@H]2Cn3cc(C(=O)NCc4ccc(F)cc4F)c(=O)c(O)c3C(=O)N12` [DTG, dolutegravir], the pIC50 [1] is listed as 7.15, the “m (slope parameter of Hill curve)” value [1] is listed as 1.2 and the “usual Cmax in humans” value [2] is listed as 3700 ng/mL. For the same molecule, the “Half-life, τ1/2” value [3] was 14 h, the Cmax ([3]; maximum plasma concentration at steady state, perfect adherence) was 8.75 µM and the “stability in SGF” value [4] was “stable”. The “Fold change in IC50 (ρ)” value ([5]; mutation E138K/Q148K) was 19.00, the “Fold change in IC50 (ρ)” value ([5]; mutation E138K) was 0.40 and the “Fold change in IC50 (ρ)” value ([5]; mutation E157Q/R263K) was 19.90. The “Fold change in IC50 (ρ)” value ([5]; mutation E157Q) was 0.01, the “Fold change in IC50 (ρ)” value ([5]; mutation G140S/Q148R) was 7.98 and the “Fractional change in slope (σ)” value ([5]; mutation G140S/Q148R) was 0.01. The “Fold change in IC50 (ρ)” value ([5]; mutation G140S) was 0.76, the “Fractional change in slope (σ)” value ([5]; mutation G140S) was -0.01 and the “Fold change in IC50 (ρ)” value ([5]; mutation H51Y/R263K) was 6.95. The “Fold change in IC50 (ρ)” value ([5]; mutation H51Y) was 1.25, the “Fold change in IC50 (ρ)” value ([5]; mutation M50I/R263K) was 15.59 and the “Fold change in IC50 (ρ)” value ([5]; mutation M50I) was 1.94. For the same molecule, the “Fold change in IC50 (ρ)” value ([5]; mutation N155H) was 1.96, the “Fold change in IC50 (ρ)” value ([5]; mutation Q148K) was 1.10 and the “Fold change in IC50 (ρ)” value ([5]; mutation Q148R/N155H) was 10.00. The “Fold change in IC50 (ρ)” value ([5]; mutation Q148R) was 1.20, the “Fold change in IC50 (ρ)” value ([5]; mutation R263K) was 2.00 and the “stability at elevated temperature” value [6] was “stable”. The drug released ([7]; PCL matrix, over a week) was 5%, the “total drug release from poly(anhydrides) relative to PCL” value ([7]; poly(anhydride) matrices vs PCL) was 4–8 fold and the drug released ([7]; poly(ethylene glycol) matrix, within the first 6 h) was 60–70%. The “patients with plasma viremia levels of <50 copies/mL” value [8] was over 95 % patients.
